# Reference: patent US8304557B2, “Fused heterocycle derivatives and use thereof” (Takeda Pharmaceutical Company Limited, priority 2007, dated 2012)
# Legend:
# [1] = system: Human umbilical vein vascular endothelial cells (HUVEC); assay: Vascular endothelial cell growth inhibitory test (VEGF-stimulated HUVEC, WST-8); type: cell-based; settings: 120 h, VEGF 120 ng/mL solution added, 5 days of culture, read-out: IC50 value, vascular endothelial cell growth inhibition
# Experimental: To be specific, HUVEC was suspended in a vascular endothelial cell medium containing the aforementioned 3% bovine fetal serum and plated in a 96 well flat bottom plate by 50 μL (3000 cells) each well. After culture overnight, various concentrations of the test substance and 120 ng/mL of vascular endothelial growth factor (VEGF) were dissolved in a vascular endothelial cell medium containing 3% bovine fetal serum and added to each well by 50 μL. […] The absorbance at 450 nm was measured by a microtiter plate reader and the cell growth inhibitory activity was determined.
# [2] = molecular target: T1, Platelet-derived growth factor receptor α (PDGFRα) intracellular domain protein (Homo sapiens, UniProt P16234); assay: PDGFRα kinase inhibitory activity (AlphaScreen); type: biochemical; settings: ATP 25 μM solution; 25° C., 30 min; read-out: IC50 value, PDGFRα kinase inhibition
# T1 construct: 125 ng/ml of PDGFα intracellular domain protein (UPSTATE); purchased UPSTATE
# Experimental: (§1) A test compound dissolved in dimethyl sulfoxide (DMSO) was diluted with a buffer (50 mM Tris-HCl (pH 7.5), 5 mM MgCl2, 5 mM MnCl2, 2 mM dithiothreitol, 0.01% Tween-20). […] The reaction solution was allowed to stand at 25° C. for 16 hrs, and the wells were counted using a plate reader Fusion™ (PerkinElmer). The kinase inhibitory rate (%) of the test compound was calculated by the following formula: Inhibitory rate(%)=(1−(count of test compound−blank)÷(control−blank))×100
# (§2) The count of the solution reacted without addition of the compound was used as a “control”, and the count of the solution without the compound and ATP was used as a “blank”.
# [3] = molecular target: T2, PDGFRβ intracellular domain protein (Homo sapiens, UniProt P09619); assay: PDGFRβ kinase inhibitory activity (AlphaScreen); type: biochemical; settings: ATP 50 μM solution; 25° C., 60 min; read-out: IC50 value, PDGFRβ kinase inhibition
# T2 construct: 125 ng/ml of PDGFRβ intracellular domain protein (UPSTATE); purchased UPSTATE
# Experimental: as §1, with “hr,” for “hrs,”
# as §2
# [4] = molecular target: VEGFR2 intracellular domain protein (Homo sapiens, UniProt P35968); assay: VEGF receptor 2 kinase inhibitory activity (AlphaScreen); settings: read-out: The inhibitory rate of the compounds at 1 μM (VEGF receptor 2 kinase)
# Experimental: Human vascular endothelial growth factor receptor 2 (hereinafter to be referred to as VEGFR2) gene was cloned by PCR using cDNA Libraries Human Placenta (Clontech) as a template.
# The PCR reaction was conducted using a KOD-plus kit (TOYOBO). […] Furthermore, using BAC-TO-BAC Baculovirus Expression System (Invitrogen), virus stock BAC-VEGFR2 of recombinant baculovirus was prepared.
# SF-21 cells were sown at 1×10^6 cells/mL to Sf-900II SEM medium (1 L, Invitrogen) containing 10% fetal bovine serum (trace), 50 mg/L Gentamicin (Invitrogen) and 0.1% Pluronic F-68 (Invitrogen), and shaking culture was performed using a 2 L volume Erlenmeyer flask at 27° C., 100 rpm. After culturing for 24 hrs, recombinant baculovirus BAC-VEGFR2 (13.4 mL) was added to the mixture, and the mixture was further cultured for 3 days. The culture medium was centrifuged at 2,000 rpm for 5 min to give virus-infected cells. The infected cells were washed with a phosphate buffered saline (Invitrogen), centrifuged under the same conditions, and the cells were preserved at −80° C. The cryopreserved cells were thawed in ice, suspended in buffer A (50 mM Tris buffer (30 mL, pH 7.4) containing 20% glycerol, 0.15 M NaCl) supplemented with Complete Protease Inhibitor (Boehringer), and ruptured 3 times with a Polytron homogenizer (Kinematica) at 20,000 rpm for 30 sec. The ruptured medium was clarified by centrifugation at 40,000 rpm for 30 min and filtered with a 0.45 μm filter. The filtrate was passed through a column packed with Anti-FLAG M2 Affinity Gel (4 mL, Sigma) at a flow rate of about 0.5 mL/min. The column was washed with buffer A, and eluted with buffer A containing 100 μg/mL of FLAG peptide. The eluate was concentrated with Vivaspin 20 (Vivascience) having a molecular weight cut off of 30K. The buffer of this concentrate was exchanged using NAP™ 25 column (Amersham Bioscience) equilibrated with buffer A. The fractions containing intracellular domain protein of VEGFR2 were collected, glycerol was added to the final concentration of 50% and cryopreserved at −80° C.
# A test compound dissolved in DMSO was diluted with a buffer (50 mM Tris-HCl (pH 7.5), 5 mM MgCl2, 5 mM MnCl2, 2 mM dithiothreitol, 0.01% Tween-20). To this compound solution (5 μL) was added a buffer (10 μL) containing 50 ng/mL of VEGFR2 intracellular domain protein and 250 ng/mL of biotin labeled polypeptide biotinyl-poly-Glu:Tyr (4:1, CIS bio International). […] The reaction solution was allowed to stand at 25° C. for 16 hrs, and the wells were counted using a plate reader Fusion™ (PerkinElmer). The kinase inhibitory rate (%) of the test compound was calculated by the following formula: Inhibitory rate(%)=(1−(count of test compound−blank)÷(control−blank))×100
# [5] = molecular target: T3, BRAF (V600E) kinase (Homo sapiens, UniProt P15056, V600E); assay: BRAF (V600E) kinase inhibitory activity ([γ-32P]ATP, GST-MEK1 (K96R) substrate); type: biochemical; settings: 1 μM compound; BRAF (V600E) 30 ng, GST-MEK1 (K96R) 250 ng; room temperature, 20 min; read-out: The inhibitory rate of the compounds at 1 μM (%)
# T3 construct: made in house; host or cells: SF-21 insect cells, recombinant baculovirus BAC-V600E
# Experimental: Human BRAF gene was cloned by PCR using human Testis cDNA library (Clontech) as a template. The primer used for PCR was prepared from base sequence (Genbank Accession NM_004333) information of BRAF gene by adding a base sequence encoding flag peptide and a recognition sequence of the restriction enzyme to area encoding the BRAF kinase domain region, so that the protein contains an N-terminal Flag. The primer base sequence is shown below.
# The PCR reaction was conducted using Pyrobest (Takara Shuzo Co., Ltd). The obtained PCR product was electrophoresed on agarose gel (1%), the DNA fragment amplified by PCR was recovered from the gel, and then digested with restriction enzymes EcoRI and SalI. The DNA treated with the restriction enzymes was electrophoresed on agarose gel (1%), and the obtained DNA fragment was recovered. The recovered DNA fragment was ligated to plasmid pFASTBAC1 (Invitrogen) digested with restriction enzymes EcoRI and SalI to give expression plasmid pFB-BRAF, and the base sequence of the insert fragment was confirmed. In addition, mutation was introduced into V600E using a Quick change Site Directed Mutagenesis kit (Stratagene). The nucleotide sequences of the primers used are shown in the following.
# The obtained plasmid was sequenced to confirm the introduction of mutation into V600E. The plasmid DNA was digested with restriction enzymes EcoRI and SalI, DNA treated with the restriction enzymes was electrophoresed on agarose gel (1%), and the obtained DNA fragment was recovered. The recovered DNA fragment was ligated to plasmid pFASTBAC1 (Invitrogen) digested with restriction enzymes EcoRI and SalI to give expression plasmid pFB-V600E.
# SF-21 cells were sown at 1×10^6 cells/mL to Sf-900II SFM medium (1 L, Invitrogen) containing 10% fetal bovine serum (Trace), 50 mg/L Gentamicin (Invitrogen) and 0.1% Pluronic F-68 (Invitrogen), and shaking culture was performed using a 2 L volume Erlenmeyer flask at 27° C., 100 rpm. After culturing for 24 hr, recombinant baculovirus BAC-V600E (13.4 mL) was added to the mixture, and the mixture was further cultured for 3 days. […]
# T1 sequence (P16234 550-1089 limits assumed): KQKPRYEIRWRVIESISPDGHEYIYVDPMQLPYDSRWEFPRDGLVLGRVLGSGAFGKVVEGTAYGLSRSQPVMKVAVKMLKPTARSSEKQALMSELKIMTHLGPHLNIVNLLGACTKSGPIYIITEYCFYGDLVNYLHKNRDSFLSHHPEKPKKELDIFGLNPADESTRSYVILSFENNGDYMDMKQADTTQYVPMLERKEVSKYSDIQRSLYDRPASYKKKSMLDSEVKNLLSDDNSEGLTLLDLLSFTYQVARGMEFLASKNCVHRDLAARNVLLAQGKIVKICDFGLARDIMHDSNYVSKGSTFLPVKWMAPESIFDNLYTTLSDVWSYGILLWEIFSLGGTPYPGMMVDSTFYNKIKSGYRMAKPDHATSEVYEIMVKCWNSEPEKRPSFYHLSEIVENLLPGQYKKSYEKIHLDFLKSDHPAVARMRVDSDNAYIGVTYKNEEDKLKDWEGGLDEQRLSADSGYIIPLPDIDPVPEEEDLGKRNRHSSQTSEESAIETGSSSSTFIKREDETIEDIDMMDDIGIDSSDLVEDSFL
# T3 sequence (P15056 457-717 V600E limits assumed): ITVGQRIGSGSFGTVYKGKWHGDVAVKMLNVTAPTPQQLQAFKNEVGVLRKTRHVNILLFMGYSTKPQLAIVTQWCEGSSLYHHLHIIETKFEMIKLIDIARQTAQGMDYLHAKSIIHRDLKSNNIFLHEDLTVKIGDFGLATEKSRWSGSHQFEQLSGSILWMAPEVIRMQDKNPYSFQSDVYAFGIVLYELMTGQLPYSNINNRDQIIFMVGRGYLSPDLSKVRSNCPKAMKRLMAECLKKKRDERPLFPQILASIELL
# T2 sequence (P09619 554-1106 limits assumed): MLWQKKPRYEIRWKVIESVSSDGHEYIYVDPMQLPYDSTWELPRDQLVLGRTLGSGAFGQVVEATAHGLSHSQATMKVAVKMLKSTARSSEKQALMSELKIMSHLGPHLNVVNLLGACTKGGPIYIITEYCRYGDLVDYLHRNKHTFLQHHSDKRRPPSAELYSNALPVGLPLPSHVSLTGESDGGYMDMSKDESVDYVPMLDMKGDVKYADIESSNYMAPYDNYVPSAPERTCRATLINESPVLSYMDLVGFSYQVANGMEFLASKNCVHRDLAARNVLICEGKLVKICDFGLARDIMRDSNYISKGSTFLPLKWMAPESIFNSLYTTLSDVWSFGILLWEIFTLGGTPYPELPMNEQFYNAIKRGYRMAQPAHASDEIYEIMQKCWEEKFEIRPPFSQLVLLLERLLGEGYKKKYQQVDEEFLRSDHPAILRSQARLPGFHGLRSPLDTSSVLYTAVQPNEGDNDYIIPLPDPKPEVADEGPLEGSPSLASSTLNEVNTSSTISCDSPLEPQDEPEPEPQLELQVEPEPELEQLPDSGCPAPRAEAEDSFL
# VEGFR2 intracellular domain protein, sequence (P35968 786-1356 limits assumed): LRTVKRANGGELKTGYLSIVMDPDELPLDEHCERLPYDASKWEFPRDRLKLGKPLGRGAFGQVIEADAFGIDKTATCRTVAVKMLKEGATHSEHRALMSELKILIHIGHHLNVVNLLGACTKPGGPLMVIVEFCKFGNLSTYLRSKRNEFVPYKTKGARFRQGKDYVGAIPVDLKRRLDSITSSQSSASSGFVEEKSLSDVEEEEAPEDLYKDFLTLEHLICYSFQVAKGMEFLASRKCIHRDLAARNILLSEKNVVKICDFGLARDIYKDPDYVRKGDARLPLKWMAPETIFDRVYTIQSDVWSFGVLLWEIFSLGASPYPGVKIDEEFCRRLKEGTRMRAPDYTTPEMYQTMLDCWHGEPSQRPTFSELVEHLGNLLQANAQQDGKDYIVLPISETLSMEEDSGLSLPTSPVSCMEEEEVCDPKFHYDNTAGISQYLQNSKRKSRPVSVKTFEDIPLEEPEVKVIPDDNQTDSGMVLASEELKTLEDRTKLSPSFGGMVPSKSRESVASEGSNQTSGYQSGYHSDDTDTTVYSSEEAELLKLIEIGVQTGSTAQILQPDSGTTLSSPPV
smiles,measurement,setting,value
"Cc1cccnc1C(=O)Nc1cccc(Oc2ccc3nc(NC(=O)C4CC4)cn3c2)c1 [Example 7-4, N-[3-({2-[(cyclopropylcarbonyl)amino]imidazo[1,2-a]pyridin-6-yl}oxy)phenyl]-3-methylpyridine-2-carboxamide]",IC50,[1],≤ 500 nM
same,IC50,[2],≤ 500 nM
same,IC50,[3],≤ 500 nM
same,inhibition at 1 µM,[4],≥ 90%
"Cc1cc(C(=O)Nc2cc(Oc3ccc4nc(NC(=O)C5CC5)cn4c3)ccc2F)n(C)n1 [Example 9-2, N-[5-({2-[(cyclopropylcarbonyl)amino]imidazo[1,2-a]pyridin-6-yl}oxy)-2-fluorophenyl]-1,3-dimethyl-1H-pyrazole-5-carboxamide]",IC50,[1],≤ 500 nM
same,IC50,[2],≤ 500 nM
same,IC50,[3],≤ 500 nM
same,inhibition at 1 µM,[4],≥ 90%
"CCNC(=O)Nc1cn2cc(Oc3ccc(F)c(NC(=O)c4cc(C)nn4C)c3)ccc2n1 [Example 10, N-{5-[(2-{[(ethylamino)carbonyl]amino}imidazo[1,2-a]pyridin-6-yl)oxy]-2-fluorophenyl}-1,3-dimethyl-1H-pyrazole-5-carboxamide]",IC50,[1],≤ 500 nM
same,IC50,[2],≤ 500 nM
same,IC50,[3],≤ 500 nM
same,inhibition at 1 µM,[4],≥ 90%
"Cc1cc(C(=O)Nc2cc(Oc3ccc4nc(NC(=O)C5CC5)nn4c3)ccc2C)n(C)n1 [Example 17-2, N-[5-({2-[(cyclopropylcarbonyl)amino][1,2,4]triazolo[1,5-a]pyridin-6-yl}oxy)-2-methylphenyl]-1,3-dimethyl-1H-pyrazole-5-carboxamide]",IC50,[1],≤ 500 nM
same,IC50,[2],≤ 500 nM
same,IC50,[3],≤ 500 nM
"Cc1nc(C(=O)Nc2cccc(Oc3ccc4nc(NC(=O)C5CC5)nn4c3)c2)c(C(F)(F)F)o1 [Example 22, N-[3-({2-[(cyclopropylcarbonyl)amino][1,2,4]triazolo[1,5-a]pyridin-6-yl}oxy)phenyl]-2-methyl-5-(trifluoromethyl)-1,3-oxazole-4-carboxamide]",IC50,[1],≤ 500 nM
same,IC50,[2],≤ 500 nM
same,IC50,[3],≤ 500 nM
same,inhibition at 1 µM,[4],≥ 90%
"Cc1cc(C(=O)Nc2cc(Oc3ccc4nc(NC(=O)C5CC5)nn4c3)ccc2F)n(C)n1 [Example 23-2, N-[5-({2-[(cyclopropylcarbonyl)amino][1,2,4]triazolo[1,5-a]pyridin-6-yl}oxy)-2-fluorophenyl]-1,3-dimethyl-1H-pyrazole-5-carboxamide]",IC50,[1],≤ 500 nM
same,inhibition at 1 µM,[4],≥ 90%
"CCn1nc(C)cc1C(=O)Nc1cc(Oc2ccc3nc(NC(=O)C4CC4)nn3c2)ccc1F [Example 72, N-[5-({2-[(cyclopropylcarbonyl)amino][1,2,4]triazolo[1,5-a]pyridin-6-yl}oxy)-2-fluorophenyl]-1-ethyl-3-methyl-1H-pyrazole-5-carboxamide]",IC50,[1],≤ 500 nM
same,IC50,[2],≤ 500 nM
same,IC50,[3],≤ 500 nM
same,inhibition at 1 µM,[4],≥ 90%
"Cc1cc(C(=O)Nc2cccc(Oc3ccn4nc(NC(=O)C5CC5)nc4c3)c2)n(C)n1 [Example 96-4, N-[3-({2-[(cyclopropylcarbonyl)amino][1,2,4]triazolo[1,5-a]pyridine-7-yl}oxy)phenyl]-1,3-dimethyl-1H-pyrazole-5-carboxamide]",IC50,[1],≤ 500 nM
same,IC50,[2],≤ 500 nM
same,IC50,[3],≤ 500 nM
same,inhibition at 1 µM,[4],≥ 90%
"Cc1cc(C(=O)Nc2cccc(Oc3ccc4nc(NC(=O)C5CC5)sc4c3)c2)n(C)n1 [Example 97-2, N-[3-({2-[(cyclopropylcarbonyl)amino]-1,3-benzothiazol-6-yl}oxy)phenyl]-1,3-dimethyl-1H-pyrazole-5-carboxamide]",IC50,[1],≤ 500 nM
same,IC50,[2],≤ 500 nM
same,inhibition at 1 µM,[4],≥ 90%
"Cc1cc(C(=O)Nc2cccc(Oc3ccc4nc(NC(=O)C5CC5)sc4n3)c2)n(C)n1 [Example 99, N-[3-({2-[(cyclopropylcarbonyl)amino][1,3]thiazolo[5,4-b]pyridin-5-yl}oxy)phenyl]-1,3-dimethyl-1H-pyrazole-5-carboxamide]",IC50,[1],≤ 500 nM
same,IC50,[2],≤ 500 nM
same,inhibition at 1 µM,[4],≥ 90%
"Cc1cccc(C(=O)Nc2cccc(Oc3ccc4nc(NC(=O)C5CC5)cn4c3)c2)n1 [Example 127-2, N-[3-({2-[(cyclopropylcarbonyl)amino]imidazo[1,2-a]pyridin-6-yl}oxy)phenyl]-6-methylpyridine-2-carboxamide]",IC50,[1],≤ 500 nM
same,IC50,[2],≤ 500 nM
same,IC50,[3],≤ 500 nM
same,inhibition at 1 µM,[4],≥ 90%
"O=C(Nc1cccc(Oc2ccc3nc(NC(=O)C4CC4)cn3c2)c1)c1cccc(C(F)(F)F)c1 [Example 226, N-[3-({2-[(cyclopropylcarbonyl)amino]imidazo[1,2-a]pyridin-6-yl}oxy)phenyl]-3-(trifluoromethyl)benzamide]",inhibition at 1 µM,[5],100%
"CC(C)(C#N)c1cccc(C(=O)Nc2cccc(Oc3ccc4nc(NC(=O)C5CC5)nn4c3)c2)c1 [Example 231, 3-(1-cyano-1-methylethyl)-N-[3-({2-[(cyclopropylcarbonyl)amino][1,2,4]triazolo[1,5-a]pyridin-6-yl}oxy)phenyl]benzamide]",inhibition at 1 µM,[5],100%
"Cc1ccc(NC(=O)c2cccc(C(F)(F)F)c2)cc1Oc1ccc2nc(NC(=O)C3CC3)nn2c1 [Example 235, N-[3-({2-[(cyclopropylcarbonyl)amino][1,2,4]triazolo[1,5-a]pyridin-6-yl}oxy)-4-methylphenyl]-3-(trifluoromethyl)benzamide]",inhibition at 1 µM,[5],100%
